Patent US20250387403A1, “SELECTIVE SIGMA-2 RECEPTOR LIGANDS AS MODULATORS OF TMEM97” (BOARD OF REGENTS, THE UNIVERSITY OF TEXAS SYSTEM, priority 2022, published 2025)

How the values were obtained:
σ2R/TMEM97 [1] = biological target: T1, σ2R/TMEM97 (Homo sapiens, UniProt Q5BJF2)
Experimental: (§1) Ki values are calculated from best-fit IC50 determinations performed in triplicate.
(§2) The binding affinities (Ki) of all synthetic compounds for σ2R/TMEM97 and σ1R were determined at the Psychoactive Drug Screening Program. Prior to the identification of σ2R as TMEM97, Ki values were measured using σ2R sourced from rat PC12 cells and σ1R sourced from guinea pig brain, but subsequently σ2R/TMEM97 and σ1R binding isotherms were determined using human protein obtained by transfection in HEK293T cells.

[2] = tested on: primary cortical neurons transfected with plasmids expressing mHTT (Htt-N586-82Q); assay: mHTT-induced toxicity in transfected primary cortical neurons (HD cell model); assay type: cell-based; conditions: for neuroprotection against mHTT-induced neuronal toxicity: concentrations 0.01-10 μM; for intrinsic toxicity: primary cortical neurons
Experimental: Toward testing the hypothesis that selective modulators of σ2R/TMEM97 have neuroprotective attributes in Huntington's disease, a small panel of compounds were evaluated with differing affinities and selectivities for σ2R/TMEM97 in a primary neuron model of HD. […] In the present disclosure, these compounds are tested in an HD cell model to assess the effects of these compounds upon mHTT-induced neuronal toxicity. Briefly, primary neurons were co-transfected with plasmid expression of a 586 N-terminal Htt polypeptide with either normal Q (Htt-N586-22Q) or expanded Q (Htt-N586-82Q) repeats and green fluorescent protein (GFP).
Stock solutions of σ2R/TMEM97 modulators were prepared by dissolving the compound in DMSO to a concentration of 10 mM. For the in vitro assays, the stock solution was diluted with culture medium (1:1000) to a working concentration of 10 μM of σ2R/TMEM97 modulator. Serial dilutions were then performed using culture medium to prepare other concentrations of the modulator. The final DMSO concentration is less than 0.1%. The vehicle group was performed using 0.1% DMSO in culture medium.
To assess the possible neuroprotective effects of selective σ2R/TMEM97 modulators in neurodegenerative processes associated with HD, a cell model was used that has been previously described (Arbez et al, 2017).

σ2R/TMEM97 [3] = biological target: σ2R/TMEM97 (Rattus norvegicus (Rat), UniProt Q5U3Y7); assay: Receptor binding assay (PDSP), rat σ2R/TMEM97 (PC12 cells), [3H]-ditolylguanidine competition
σ2R/TMEM97 (Rattus norvegicus (Rat), UniProt Q5U3Y7), sequence (Q5U3Y7 whole entry): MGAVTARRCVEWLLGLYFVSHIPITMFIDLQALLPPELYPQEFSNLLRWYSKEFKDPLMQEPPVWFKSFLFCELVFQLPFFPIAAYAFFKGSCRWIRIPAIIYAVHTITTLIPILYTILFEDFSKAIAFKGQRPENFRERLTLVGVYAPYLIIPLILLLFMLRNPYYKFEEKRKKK
Experimental: as §1, §2

σ2R/TMEM97 [4] = biological target: T1, σ2R/TMEM97; assay: Receptor binding assay (PDSP), human σ2R/TMEM97, [3H]-ditolylguanidine competition; conditions: for affinity (Ki) for σ2R/TMEM97, in words: human σ2R/TMEM97; for selectivity for σ2R/TMEM97 vs σ1R, in words: human σ2R/TMEM97 vs human σ1R
Experimental: as §1, §2

[5] = tested on: spared nerve injury (SNI) model; conditions: earlier studies (Sahn et al, 2017); cited from earlier work

T1 sequence (Q5BJF2 whole entry, looked up): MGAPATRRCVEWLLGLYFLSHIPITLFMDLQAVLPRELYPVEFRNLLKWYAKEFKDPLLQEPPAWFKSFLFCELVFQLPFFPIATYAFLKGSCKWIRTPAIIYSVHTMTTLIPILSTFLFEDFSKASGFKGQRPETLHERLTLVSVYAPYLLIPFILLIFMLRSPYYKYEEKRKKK

Ki (σ2R/TMEM97 [1]) | SMILES | further results
79 nM | FC(F)(F)Oc1cccc(-c2ccc3c(c2)C2CC3CCN2C2CCCCC2)c1 (stereo not shown) | 
8.7 nM | CN(C)CCC(=O)N1CCC2CC1c1cc(-c3cccc(C(F)(F)F)c3)ccc12 (stereo not shown) | 
264 nM | O=C(C1CCN(CCCO)CC1)N1CC[C@@H]2CC1c1cc(-c3cccc(OC(F)(F)F)c3)ccc12 | 
30.4 nM | CN1CCC(C(=O)N2CCC3CC2c2cc(-c4cccc(OC(F)(F)F)c4)ccc23)CC1 (stereo not shown) | 
48.3 nM | OCCCN1CC[C@@H]2CC1c1cc(-c3cccc(OC(F)(F)F)c3)ccc12 | 
4.9 nM | CNCCC(=O)N1CCC2CC1c1cc(-c3cccc(C(F)(F)F)c3)ccc12 (stereo not shown) | 
37.1 nM | O=C(C1CCNCC1)N1CC[C@H]2CC1c1cc(-c3cccc(OC(F)(F)F)c3)ccc12 | 
35.4 nM | O=C(C1CCNCC1)N1CC[C@@H]2CC1c1cc(-c3cccc(OC(F)(F)F)c3)ccc12 | 
32.3 nM | O=C(C1CCN(CCO)CC1)N1CCC2CC1c1cc(-c3cccc(C(F)(F)F)c3)ccc12 (stereo not shown) | 
2.3 nM | CN1CCC(C(=O)N2CCC3CC2c2cc(-c4cccc(C(F)(F)F)c4)ccc23)CC1 (stereo not shown) | 
62 nM | FC(F)(F)c1cccc(-c2ccc3c(c2)C2CC3CCCN2C2CCCC2)c1 (stereo not shown) | 
4.1 nM | CC(=O)N[C@H]1CC[C@H](N2CCC3CC2c2cc(-c4cccc(C(F)(F)F)c4)ccc23)CC1 (stereo partly shown) | 
1.3 nM | CCCN1CCC(C(=O)N2CCC3CC2c2cc(-c4ccc(C(F)(F)F)cc4)ccc23)CC1 (stereo not shown) | 
7.7 nM | O=C(C1CCN(CCCO)CC1)N1CCC2C[C@H]1c1cc(-c3ccc(C(F)(F)F)cc3)ccc12 | 
35.1 nM | CN1CCC(C(=O)N2CCC3C[C@@H]2c2cc(-c4ccc(C(F)(F)F)cc4)ccc23)CC1 | 
16 nM | O=C(C1CNC1)N1CCC2CC1c1cc(-c3cccc(C(F)(F)F)c3)ccc12 (stereo not shown) | 
6.8 nM | O=C(C1CCNCC1)N1CCC2CC1c1cc(-c3ccc(C(F)(F)F)cc3)ccc12 (stereo not shown) | 
52.5 nM | O=C(C1CCNCC1)N1CCCC2CC1c1cc(-c3ccc(C(F)(F)F)cc3)ccc12 (stereo not shown) | 
10.3 nM | COCCN1CCC(C(=O)N2CCC3C[C@H]2c2cc(-c4ccc(C(F)(F)F)cc4)ccc23)CC1 | 
13.6 nM | O=C(C1CCN(CCO)CC1)N1CCC2C[C@H]1c1cc(-c3ccc(C(F)(F)F)cc3)ccc12 | 
5.5 nM | O=C(C1CCNCC1)N1CCC2CC1c1cc(-c3cccc(C(F)(F)F)c3)ccc12 (stereo not shown) | 

More lines, now with the values behind:

SMILES | Ki (σ2R/TMEM97 [1]) | further results
N[C@H]1CC[C@@H](N2CCC3CC2c2cc(-c4cccc(C(F)(F)F)c4)ccc23)CC1 (stereo partly shown) | 7.9 nM | 
N[C@H]1CC[C@@H](N2CCC3C[C@H]2c2cc(-c4cccc(C(F)(F)F)c4)ccc23)CC1 | 30.8 nM | 
Cc1ccc(-c2ccc3c(c2)C2CC3CCCN2C2CCCC2)cc1 (stereo not shown) | 187 nM | 
O=C(N1CC2(CN(CCO)C2)C1)N1CCC2C[C@H]1c1cc(-c3ccc(C(F)(F)F)cc3)ccc12 | 441 nM | 
OCCN1CCC2CC1c1cc(-c3ccc(C(F)(F)F)cc3)ccc12 (stereo not shown) | 32 nM | 
CN1CCN(c2ccc3c(c2)C2CC3CCN2C(=O)OCc2ccc(F)cc2)CC1 (racemic) [AMA-1127, (±)-4-Fluorobenzyl-8-(4-methylpiperazin-1-yl)-1,3,4,5-tetrahydro-2H-1,5-methanobenzo[c]azepine-2-carboxylate] |  | neuroprotection against mHTT-induced neuronal toxicity [2]: significant neuroprotection in a dose dependent fashion; intrinsic toxicity [2]: None of these compounds appear to exhibit any intrinsic toxicity; affinity (Ki) for σ2R/TMEM97, in words (σ2R/TMEM97 [3]; rat σ2R/TMEM97): high affinity; selectivity for σ2R/TMEM97 vs σ1R, in words (σ2R/TMEM97 [3]; rat σ2R/TMEM97 vs guinea pig σ1R): good selectivity
FC(F)(F)c1ccc(-c2ccc3c(c2)C2CC3CCCN2C2CCCCC2)cc1 (racemic) [BEA-1687, (±)-2-Cyclohexyl-9-(4-(trifluoromethyl)phenyl)-1,2,3,4,5,6-hexahydro-1,6-methanobenzo[c]azocine] |  | neuroprotection against mHTT-induced neuronal toxicity [2]: significant neuroprotection in a dose dependent fashion; intrinsic toxicity [2]: None of these compounds appear to exhibit any intrinsic toxicity; affinity (Ki) for σ2R/TMEM97, in words (σ2R/TMEM97 [4]): high affinity; selectivity for σ2R/TMEM97 vs σ1R, in words (σ2R/TMEM97 [4]): good
O=C(N1CCC2(CC1)CN(CCO)C2)N1CCC2C[C@H]1c1cc(-c3ccc(C(F)(F)F)cc3)ccc12 | 91.6 nM | 
O=C(N1CCN(CCO)CC1)N1CCC2C[C@H]1c1cc(-c3ccc(C(F)(F)F)cc3)ccc12 | 955 nM | 
COCCN1CC(C(=O)N2CCC3C[C@H]2c2cc(-c4ccc(C(F)(F)F)cc4)ccc23)C1 | 17.6 nM | 
CCCN1CCC2CC1c1cc(-c3cccc(C(F)(F)F)c3)ccc12 (stereo not shown) | 112 nM | 
Fc1ccc(-c2ccc3c(c2)C2CC3CCCN2C2CCCC2)cc1 (stereo not shown) | 153 nM | 
CN(CCO)CCC(=O)N1CCC2CC1c1cc(-c3cccc(C(F)(F)F)c3)ccc12 (stereo not shown) | 4.3 nM | 
CS(=O)(=O)c1ccc(-c2ccc3c(c2)C2C[C@H]3CCN2CCCO)cc1 | 1180 nM | 
OCCCN1CC[C@@H]2CC1c1cc(-c3ccnc(F)c3)ccc12 | 802 nM | 
FC(F)(F)c1ccc(-c2ccc3c(c2)C2CC3CCN2C2CCCC2)cc1 (stereo not shown) | 82.3 nM | 
FC(F)(F)c1ccc(-c2ccc3c(c2)C2CC3CCCN2)cc1 (stereo not shown) | 21 nM | 
O=C(N1CC2CC(C1)N2CCO)N1CCC2C[C@H]1c1cc(-c3ccc(C(F)(F)F)cc3)ccc12 | 62.9 nM | 
FC(F)(F)c1ccc(-c2ccc3c(c2)C2CC3CCN2C2CCC2)cc1 (stereo not shown) | 213 nM | 
COc1ccc(-c2ccc3c(c2)C2CC3CCCN2C2CCCC2)cc1 (stereo not shown) | 194 nM | 

SMILES | Ki (σ2R/TMEM97 [1]) | further results
FC(F)(F)c1ccc(-c2ccc3c(c2)C2CC3CCCN2C2CCCCC2)cc1 (stereo not shown) | 25 nM | 
FC(F)(F)c1ccccc1-c1ccc2c(c1)C1CC2CCCN1C1CCCC1 (stereo not shown) | 549 nM | 
CS(=O)(=O)c1ccc(-c2ccc3c(c2)[C@@H]2CC3CCN2C(=O)C2CCN(CCO)CC2)cc1 | 834 nM | 
OC(CF)CN1CCC2CC1c1cc(-c3ccc(C(F)(F)F)cc3)ccc12 (stereo not shown) | 34 nM | 
CS(=O)(=O)c1cccc(-c2ccc3c(c2)C2C[C@H]3CCN2CCCO)c1 | 1850 nM | 
FC(F)(F)c1ccc(-c2ccc3c(c2)C2CC3CCCN2C2CCCC2)cn1 (stereo not shown) | 336 nM | 
OC1CCC(N2CCCC3CC2c2cc(-c4ccc(C(F)(F)F)cc4)ccc23)CC1 (stereo not shown) | 39 nM | 
CS(=O)(=O)c1cccc(-c2ccc3c(c2)C2C[C@H]3CCN2C(=O)C2CCN(CCO)CC2)c1 | 277 nM | 
FC(F)(F)c1cccc(-c2ccc3c(c2)C2CC3CCN2)c1 (stereo not shown) | 57 nM | 
CCCN1CCC(C(=O)N2CCC3CC2c2cc(-c4ccc(C(F)(F)F)cc4)ccc23)CC1 (racemic) [JJS-1678, (±)-(1-Propylpiperidin-4-yl)(8-(4-(trifluoromethyl)phenyl)-1,3,4,5-tetrahydro-2H-1,5-methanobenzo[c]azepin-2-yl)methanone] |  | affinity (Ki) for σ2R/TMEM97, in words (σ2R/TMEM97 [4]): high affinity; selectivity for σ2R/TMEM97 vs σ1R, in words (σ2R/TMEM97 [4]): good
O=C(C1CCN(CCO)CC1)N1CCC2CC1c1cc(-c3ccc(C(F)(F)F)cc3)ccc12 (racemic) [EES-1686, (±)-(1-(2-Hydroxyethyl)piperidin-4-yl)(8-(4-(trifluoromethyl)phenyl)-1,3,4,5-tetrahydro-2H-1,5-methanobenzo[c]azepin-2-yl)methanone] |  | neuroprotection against mHTT-induced neuronal toxicity [2]: significant neuroprotection in a dose dependent fashion; concentration providing significant neuroprotection ([2]; lowest of the series): 10 nM; intrinsic toxicity [2]: None of these compounds appear to exhibit any intrinsic toxicity; affinity (Ki) for σ2R/TMEM97, in words (σ2R/TMEM97 [4]): high affinity; selectivity for σ2R/TMEM97 vs σ1R, in words (σ2R/TMEM97 [4]): good
O=C(C1CN(CCO)C1)N1CCC2C[C@H]1c1cc(-c3ccc(C(F)(F)F)cc3)ccc12 | 15.3 nM | 
OCCCN1CCCC2CC1c1cc(-c3ccc(C(F)(F)F)cc3)ccc12 (stereo not shown) [UKH-1114] |  | neuroprotection against mHTT-induced neuronal toxicity [2]: significant neuroprotection in a dose dependent fashion; intrinsic toxicity [2]: None of these compounds appear to exhibit any intrinsic toxicity; pain relief in the SNI model [5]: relieved pain
N#Cc1ccc(-c2ccc3c(c2)C2CC3CCCN2C2CCCC2)cc1 (stereo not shown) | 119 nM | 
N[C@H]1CC[C@H](N2CCC3CC2c2cc(-c4cccc(C(F)(F)F)c4)ccc23)CC1 (stereo partly shown) | 70.5 nM | 
OCCCN1CCC2CC1c1cc(-c3ccc(C(F)(F)F)cc3)ccc12 (stereo not shown) | 11 nM | 
FC(F)(F)c1ccc(-c2ccc3c(c2)C2CC3CCCN2CC2CCCC2)cc1 (stereo not shown) | 99 nM | 
CN(C)[C@H]1CC[C@@H](N2CCC3C[C@H]2c2cc(-c4cccc(C(F)(F)F)c4)ccc23)CC1 | 9.5 nM | 
CC(C)N1CCCC2CC1c1cc(-c3ccc(C(F)(F)F)cc3)ccc12 (stereo not shown) | 87 nM | 
